Source: PMC8400955 (Pharmaceuticals, 2021)
“Also recorded” adds a separate entry of the source. Like-named read-outs stand apart in the source and are kept apart here.

Legend:
Format in all cases: in vitro ADME
Caco-2 cell monolayers = experiment: Bidirectional permeability across Caco-2 cell monolayers; settings: Caco-2, according to the results at 15 μM
Experimental: (§1) The bidirectional permeability and absorption mechanism of ZB716 was evaluated across Caco-2 cell monolayers.
(§2) The apical-to-basolateral (A–B) and basolateral-to-apical (B–A) transport of ZB716 in HBSS (25 mM HEPES) with 1% BSA was measured across Caco-2 cell monolayers. […] All incubations were performed in triplicate, and the integrity of the cell monolayers was confirmed using the marker Lucifer yellow.
(§3) The slope, k, was determined by linear
(§4) using the following equation: […]
(§5) 1.4 Intestinal Mucosal Permeation of ZB716
(§6) Papp= VAArea х timeх ሾdrugሿreceiverሾdrugሿinitial,donor

[1] = as above; settings: human; for recovery at 120 min, 1 μM: Caco-2, Caco-2, 1 μM; for recovery at 120 min, 5 μM: Caco-2, Caco-2, 5 μM; for recovery at 120 min, 15 μM: Caco-2, Caco-2, 15 μM
Experimental: as §1, §2, §3, §4, §5, §6

[2] = Metabolic stability in monkey hepatocytes
Experimental: Hepatocytes of humans (#X008001), dogs (#M00205), rats (#M00005), and mice (#M005052) were purchased from BioIVT, NY, USA. Monkey hepatocytes were procured from RILD, Shanghai, China. The metabolic stability of ZB716 in human, monkey, dog, rat and mouse hepatocytes was investigated by incubating ZB716 with human, monkey, dog, rat, and mouse hepatocytes (0.5 × 10^6 cells/mL), or with incubation medium only.
parent disappearance vs. incubation time curve.
Scaled-up Clint = kV/N × Scaling Factor
metabolite formed during the reaction.

CYP3A4 = CYP3A4 (Homo sapiens, UniProt P08684); experiment: CYP inhibition in human liver microsomes, CYP3A4; set-up: 2D6, and 3A4) in human liver microsomes (0.2 mg/mL) in the presence of NADPH; from tissue; host or cells: human liver microsomes; settings: HLM
Sequence of CYP3A4 (P08684 whole entry): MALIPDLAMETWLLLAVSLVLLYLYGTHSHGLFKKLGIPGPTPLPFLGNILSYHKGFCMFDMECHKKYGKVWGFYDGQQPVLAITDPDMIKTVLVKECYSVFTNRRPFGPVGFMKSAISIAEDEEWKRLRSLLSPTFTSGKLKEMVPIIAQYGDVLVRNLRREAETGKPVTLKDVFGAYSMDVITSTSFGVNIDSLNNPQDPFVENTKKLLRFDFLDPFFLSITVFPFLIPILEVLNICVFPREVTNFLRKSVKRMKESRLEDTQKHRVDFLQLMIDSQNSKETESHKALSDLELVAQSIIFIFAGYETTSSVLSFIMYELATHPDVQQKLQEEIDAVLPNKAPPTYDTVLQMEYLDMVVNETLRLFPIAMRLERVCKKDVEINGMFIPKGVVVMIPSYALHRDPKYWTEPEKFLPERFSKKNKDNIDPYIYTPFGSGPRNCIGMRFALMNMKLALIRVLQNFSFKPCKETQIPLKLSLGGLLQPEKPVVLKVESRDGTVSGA
Experimental: . The inhibition of CYP2B6 and 3A4 (when midazolam was used as the substrate) by ZB716 was not observed. The inhibitory potential of ZB716 on human CYP enzyme activities appears relatively low.
The final concentrations of ZB716 in the incubation system were 0, 0.05, 0.15, 0.5, 1.5, 5, and 15 µM (final organic solvent concentration ≤ 1%). […] . […] The concentrations of the isoform-specific metabolites derived from marker substrates were measured by UPLC–MS/MS. The IC50 values were calculated from the percentages of the rate of the metabolite formation relative to non-inhibited controls vs. the concentrations of ZB716 or positive control inhibitors. All incubations were performed in triplicate. The mean of the enzyme activity (% of non-inhibited control) for each concentration was plotted against the log inhibitor concentration, and fitted to an IC50 curve.

C[C@]12CC[C@@H]3c4ccc(B(O)O)cc4C[C@@H](CCCCCCCCC[S+]([O-])CCCC(F)(F)C(F)(F)F)[C@H]3[C@@H]1CC[C@@H]2O (stereo partly drawn) [ZB716, fulvestrant-3-boronic acid]
permeability class (Caco-2 cell monolayers): low permeability | recovery at 120 min, 1 μM ([1]; read-out: Recovery A to B): < 66.6% | recovery at 120 min, 1 μM ([1]; read-out: Recovery B to A): 66.5 ± 0.7% | recovery at 120 min, 5 μM ([1]; read-out: Recovery A to B): < 67% | recovery at 120 min, 5 μM ([1]; read-out: Recovery B to A): 73.7 ± 1.5% | recovery at 120 min, 15 μM ([1]; read-out: Recovery A to B): 75.7 ± 2% | recovery at 120 min, 15 μM ([1]; read-out: Recovery B to A): 84.2 ± 4.8% | Papp A→B at 120 min, 1 μM ([1]; Caco-2, 1 μM): < 0.778 ×10⁻⁶ cm/s | Papp B→A at 120 min, 1 μM ([1]; Caco-2, 1 μM): 0.747 ± 0.0316 ×10⁻⁶ cm/s | efflux ratio at 120 min, 1 μM ([1]; Caco-2, 1 μM): > 0.935 | Papp A→B at 120 min, 5 μM ([1]; Caco-2, 5 μM): < 0.159 ×10⁻⁶ cm/s | Papp B→A at 120 min, 5 μM ([1]; Caco-2, 5 μM): 0.82 ± 0.127 ×10⁻⁶ cm/s | efflux ratio at 120 min, 5 μM ([1]; Caco-2, 5 μM): > 4.55 | Papp A→B at 120 min, 15 μM ([1]; Caco-2, 15 μM): 0.188 ± 0.021 ×10⁻⁶ cm/s | Papp B→A at 120 min, 15 μM ([1]; Caco-2, 15 μM): 0.534 ± 0.028 ×10⁻⁶ cm/s | efflux ratio at 120 min, 15 μM ([1]; Caco-2, 15 μM): 2.87 ± 0.49 | half-life at 1 μM ([2]; read-out: Estimated In Vitro t1/2): 27.6 ± 2 min | hepatocyte CLint at 1 μM ([2]; read-out: In Vitro Clint): 50.3 ± 3.6 µL/min/1e6 cells | CLint scaled at 1 μM ([2]; read-out: Scaled-Up Clint): 181 ± 13 mL/min/kg | IC50 (CYP3A4; CYP3A4-M, marker substrate Midazolam): not observed; also recorded: No Inhibition | IC50 (CYP3A4; CYP3A4-T, marker substrate Testosterone, read-out: IC50): 11.2 µM
